Assay results from article PMC12531871, “Indole-2-carboxamides Optimization for Antiplasmodial Activity” (ACS Bio & Med Chem Au, 2025).
≈ marks a conversion by molar mass, not a printed value. Where “and” joins values, the source holds several entries; their conditions need not be identical. Equal entries are not always repeated. Entries after “also recorded” stand apart in the source; their conditions may differ. Where two headings read alike, the source gives them in different places.

Tests used:
[1] = Kinetic solubility at pH 7.4; assay type: physicochemical; details: phosphate-buffered saline, 25 °C, pH 7.4, aqueous buffer, kinetic from dmso stock; read-out: Kinetic solubility (Sol)
Protocol: Kinetic solubility assay was performed using UV–vis detection. […] The samples were filtered using a multiscreen solubility filter plate. The filtrate was diluted by 50% with MeCN. A five-point linearity curve was prepared in PBS/MeCN (1:1, v/v) at 200, 150, 75, 25, and 2.5 μM. Blank, linearity, and test samples (n = 2) were transferred to a UV-readable plate, and the plate was scanned for absorbance. Best-fit calibration curves were constructed using the calibration standards and used to determine the test sample solubility. The experiment was carried out in duplicate. Diethylstilbestrol, Haloperidol, and Diclofenac Sodium were used as reference standards.

[2] = test system: P. falciparum Dd2 strain; test: Antiplasmodial activity against resistant P. falciparum Dd2; assay type: cell-based; details: Plasmodium falciparum, 3D7 / DD2; resistant Dd2, in parallel with 3D7; read-out: IC50^Dd2 ± SD
[3] = eLogD at pH 7.4, miniaturized shake flask method; assay type: physicochemical; details: for logD at 2 h: 1-octanol/PBS (1:1, v/v), pH 7.4, pH 7.4, miniaturized shake flask method
Protocol: eLogD at pH 7.4 was determined using a miniaturized shake flask method. A solution of a presaturated mixture of 1-octanol and phosphate-buffered saline (PBS) (1:1, v/v) and the test compound (75 μM) was incubated at 25 °C with constant shaking (850 rpm) for 2h. After incubation, the organic and aqueous phases were separated, and samples of each phase were transferred to a plate for dilution. […] The samples were quantitated using LC-MS/MS. The experiment was carried out in duplicate. Propranolol, Amitriptyline, and Midazolam were used as reference standards.

[4] = Resazurin assay for cytotoxicity in HepG2 cells; assay type: cell-based, human; details: human, HepG2 cells; HepG2 cell line, 72 h, resazurin
Protocol: (§1) HepG2 cells were trypsinized, counted, and distributed in a 96-well plate at a density of 30,000 cells per well (180 μL). The plate was incubated at 37 °C and 5% CO2 for 24 h. Following incubation, 20 μL of serial dilutions of the tested compounds were added to the wells, with concentrations ranging from 30 to 0.47 μM. The plate was incubated for an additional 72 h at 37 °C and 5% CO2. Untreated cells served as positive controls, while wells containing only medium were used as negative controls. Postincubation, microscopy was employed to determine the highest compound concentration for treatment results. […] Concentration–response curves were generated, and half-maximal inhibitory concentration (CC50) values were determined using nonlinear regression analysis.

[5] = test system: P. falciparum K1 strain; test: Antiplasmodial activity against resistant P. falciparum K1; assay type: cell-based; details: Plasmodium falciparum, 3D7 / K1; resistant K1, in parallel with 3D7; read-out: IC50^K1 ± SD
[6] = Rat hepatocyte stability; assay type: in vitro ADME; details: for R Heps (Clint): rat hepatocyte stability
Protocol: The reaction was terminated with the addition of ice-cold MeCN at designated time points. The samples were then centrifuged (4200 rpm) for 20 min at 20 °C, and the supernatant was half diluted in water and then analyzed using LCMS/MS. The % parent compound remaining, half-life (t 1/2), and clearance (CLint) were calculated using standard methodology. The experiment was carried out in duplicate. Diltiazem, 7-Ethoxy Coumarin, Propranolol, and Midazolam were used as reference standards.

[7] = test system: P. falciparum 3D7 strain (Pf3D7); test: Antiplasmodial activity against P. falciparum 3D7 blood-stage parasites (SYBR Green, 72 h); assay type: cell-based, Plasmodium falciparum
[8] = Human liver microsome stability; assay type: in vitro ADME; details: human microsomal intrinsic clearance; for microsomal CLint at 1 μM: human, pooled human liver microsomes, read-out: hMics, human microsome Clint
Protocol: A solution of the test compounds in phosphate buffer solution (1 μM) was incubated in pooled human or mouse liver microsomes (0.5 mg/mL) for 0, 5, 20, 30, 45, and 60 min at 37 °C in the presence and absence of an NADPH regeneration system (NRS). The tests were conducted by […], India. The reaction was terminated with the addition of ice-cold acetonitrile, containing a […] standard, at designated time points. The sample was centrifuged (4200g) for 20 min at 20 °C and the supernatant was diluted by half in water and then analyzed by LC-MS/MS. The % parent compound remaining, half-life (t 1/2) and clearance (CLint) were calculated using standard methodology. The experiment was carried out in duplicate. Verapamil, diltiazem, phenacetin, and imipramine were used as reference standards.

[9] = test system: P. falciparum; test: Parasite reduction ratio (PRR) assay, in vitro rate of kill; assay type: cell-based, Plasmodium falciparum
Text: This library was designed to maximize chemical diversity and novelty of compounds with physicochemical properties consistent with potential for further development.

[10] = test system: HepG2 cells; test: Resazurin assay for cytotoxicity in HepG2 cells; assay type: cell-based, human; details: Homo sapiens, HepG2
Protocol: as §1

[11] = test system: P. falciparum NF54 strain; test: Antiplasmodial activity against P. falciparum NF54 (SYBR Green, 72 h); assay type: cell-based, Plasmodium falciparum; details: read-out: NF54-IC50
[12] = test system: P. falciparum (3D7 strain) digestive vacuole; test: Digestive vacuole homeostasis, acridine orange fluorescence; assay type: cell-based, Plasmodium falciparum; details: 10 μM, 3 min treatment, isolated parasites
Protocol: The sample was incubated for 40 min at 37 °C. […] Fluorescence was measured in a Hitachi F-7000 fluorimeter (Tokyo, Japan) by continuous measurement of the fluorescence (λex = 488 nm; λem = 560 nm) at 37 °C. Experiments were performed in triplicate.

[13] = test system: P. falciparum Dd2 (chloroquine resistance); test: Effect of verapamil on inhibitory activity in P. falciparum Dd2; assay type: cell-based; details: Plasmodium falciparum
[14] = test system: P. falciparum 3D7 (chloroquine-sensitive); test: Effect of verapamil on inhibitory activity in P. falciparum 3D7; assay type: cell-based; details: Plasmodium falciparum
[15] = test system: P. falciparum 3D7 clone; test: Ex vivo schizont maturation assay, 3D7 laboratory strain control; assay type: cell-based; details: Plasmodium falciparum
[16] = test system: P. vivax field isolates from Brazil; test: Ex vivo drug susceptibility of P. vivax field isolates; assay type: cell-based; details: Plasmodium vivax; for IC50: read-out: median IC50 (range), P. vivax (9); for EC50: read-out: median EC50 against P. vivax field isolates
[17] = test system: P. falciparum field isolates from Brazil; test: Ex vivo drug susceptibility of P. falciparum field isolates; assay type: cell-based, Plasmodium falciparum; details: Plasmodium falciparum; for IC50: read-out: median IC50 (range), P. falciparum (7); for EC50: read-out: median EC50 against P. falciparum isolates
[18] = test system: synchronized P. falciparum parasites (3D7 strain); test: P. falciparum asexual blood stage-specificity assay (8 h exposures); assay type: cell-based, Plasmodium falciparum
[19] = Plasmodium falciparum, 3D7, 72 h, 3D7 strain, 72 h, SYBR Green, read-out: Pf3D7-IC50
[20] = Plasmodium falciparum, 3D7 / DD2, sensitive 3D7, in parallel with K1 and Dd2, read-out: IC50^3D7 ± SD
[21] = 3D7 strain, 72 h, SYBR Green, read-out: Pf3D7-IC50

Row | solubility kinetic at 2 h [1] | IC50 [2] | logD at 2 h [3] | IC50 [5] | R Heps (Clint) [6] | IC50 [7, 19] | IC50 [7, 20] | microsomal CLint at 1 μM [8] | Structure (SMILES) | CC50 at 72 h [4] | other results
1 | > 200 µM | 700 ± 200 nM | 2.3 | 500 ± 300 nM | 50 μL/min/10^6 | 370 ± 40 nM | 300 ± 100 nM | 36 µL/min/mg | CN1CCC(N(Cc2cccnc2)C(=O)c2cc3cc(Cl)ccc3[nH]2)CC1 [Compound 5t, 5-Chloro-N-(1-methylpiperidin-4-yl)-N-(pyridin-3-ylmethyl)-1H-indole-2-carboxamide] | > 30000 nM | –
2 | 193 µM (≈ 71.2 µg/mL) | 9100 ± 100 nM | 0.62 | 6400 ± 100 nM | 15 μL/min/10^6 | 1390 nM | – | 4.6 µL/min/mg | O=C(c1cc2cc(Cl)ccc2[nH]1)N(Cc1cccnc1)CC1CCNC1 (stereo not drawn) [Compound 6a, 5-Chloro-N-(pyridin-3-ylmethyl)-N-(pyrrolidin-3-ylmethyl)-1H-indole-2-carboxamide] | > 30000 nM | Parasite Reduction Rate (PRR), rate of kill [9]: as fast as that of CQ; also recorded: Fast-acting inhibitor; LogD ([3]; pH 7.4, miniaturized shake flask method): 0.6; IC50 [10]: > 20000 nM; IC50 ([11]; NF54 strain): 800 ± 400 nM; IC50 ([11]; Plasmodium falciparum, NF54, NF54 strain): 840 nM; hepatocyte CLint at 1 μM ([6]; pooled rat hepatocytes, rat hepatocyte intrinsic clearance, read-out: Rat hep Clint): 14.6 µL/min/1e6 cells; IC50 [7, 21]: 1400 nM and 1000 nM; hMics, human microsome Clint [8]: 5 µL/min/mg
3 | > 1000 µM | – | -0.4 | – | 4 μL/min/10^6 | > 10000 nM | – | 7 µL/min/mg | COc1ccc2[nH]c(C(=O)N(Cc3cccnc3)CC3CCNC3)cc2c1 (stereo not drawn) [Compound 6d, 5-Methoxy-N-(3-pyridylmethyl)-N-(pyrrolidin-3-ylmethyl)-1H-indole-2-carboxamide] | – | effect on digestive vacuole H+ homeostasis (acridine orange fluorescence) [12]: strong interaction
4 | 196 µM | 4700 ± 800 nM | 1 | 5200 ± 200 nM | 2 μL/min/10^6 | ~300 nM | 400 ± 300 nM | 3 µL/min/mg | Cl.O=C(c1cc2cc(Cl)ccc2[nH]1)N(Cc1cccnc1)C1CCNCC1 [Compound 6x, 5-Chloro-N-(piperidin-4-yl)-N-(pyridin-3-ylmethyl)-1H-indole-2-carboxamide hydrochloride] | > 30000 nM | IC50 ([13]; read-out: IC50^Dd2 (10 μM VP), Dd2, presence of 10 μM verapamil): 560 nM; IC50 ([13]; Dd2, absence of verapamil, read-out: IC50^Dd2 (without VP)): 2940 nM; IC50 [7, 21]: 330 ± 80 nM; IC50 ([14]; 3D7, verapamil experiment, read-out: IC50 in 3D7 strain): ~150 nM; IC50 ([14]; read-out: IC50^3D7 (10 μM VP), 3D7, presence of 10 μM verapamil): 214 nM; IC50 ([14]; 3D7, absence of verapamil, read-out: IC50^3D7 (without VP)): 148 nM
5 | > 200 µM | 1600 ± 300 nM | 1.4 | 2100 ± 200 nM | 4 μL/min/10^6 | 220 ± 90 nM | 300 ± 100 nM | 17 µL/min/mg | O=C(c1cc2cc(C(F)(F)F)ccc2[nH]1)N(Cc1cccnc1)C1CCNCC1 [Compound 6y, N-(Piperidin-4-yl)-N-(pyridin-3-ylmethyl)-5-(trifluoromethyl)-1H-indole-2-carboxamide] | > 30000 nM | –
6 | – | – | – | – | – | – | – | – | C[C@H]1[C@H](OC(=O)CCC(=O)O)O[C@@H]2O[C@@]3(C)CC[C@H]4[C@H](C)CC[C@@H]1[C@@]24OO3 [artesunate] | – | IC50 ([15]; ex vivo assay conditions, 3D7 control, read-out: P. falciparum 3D7 IC50): 8 nM; IC50 ([16]; 9 clinical isolates, ex vivo): 1 nM; EC50 ([16]; ex vivo): 1 nM; IC50 ([17]; 7 clinical isolates, ex vivo): 0.6 nM; EC50 ([17]; ex vivo): 0.6 nM
7 | – | – | – | – | – | – | – | – | CCN(CC)CCCC(C)Nc1ccnc2cc(Cl)ccc12 (stereo not drawn) [chloroquine, reference compound] | – | timing of peak activity (lowest IC50^8h) in asexual blood stages [18]: peak activity at ring and trophozoite stages; IC50 ([15]; 3D7, read-out: P. falciparum 3D7 IC50): 12 nM; IC50 ([13]; DD2, read-out: IC50^Dd2 (without VP)): 655 nM; EC50 [16]: 295 nM; IC50 [16]: 295 nM; IC50 ([14]; 3D7, read-out: IC50^3D7 (without VP)): 39.8 nM; IC50 ([14]; 3D7, read-out: IC50 in 3D7 strain): 40 to 50 nM; EC50 [17]: 1200 nM; IC50 [17]: 1200 nM
